Data reported in ChEMBL document CHEMBL1255229, “Novel antimicrobial peptides that exhibit activity against select agents and other drug resistant bacteria” (2010).
Values after ≈ are worked out from the molar mass of the structure shown. Starred links: 1 amine or outer side, 2 acyl side, 3 side chain; linkers in the order of their positions; H or OH if unused. Non-standard residues stand in square brackets, D forms with d. Residues, ends and D or L forms follow the SMILES beside them. ξ: configuration not given here. Pro(3ξ,4ξ-(CH2)4) = O=C(O)[C@H]1NCC2CCCCC21; X1 = O=C([C@@H]1CN([*:1])C2CCCCC21)[*:2]; Phe(4-F) = N[C@@H](Cc1ccc(F)cc1)C(=O)O; Tic = O=C(O)[C@@H]1Cc2ccccc2CN1; Dab = NCC[C@H](N)C(=O)O; Dap = NC[C@H](N)C(=O)O; GABA = NCCCC(=O)O; βAla = NCCC(=O)O

Legend:
Assay type in all cases: functional
Acinetobacter baumannii [1] = experiment: Antimicrobial activity against Acinetobacter baumannii ATCC 19606 after 24 hrs; details: ATCC 19606 = CIP 70.34 = JCM 6841, 24 h
Francisella tularensis = experiment: Antimicrobial activity against Francisella tularensis SCHU-S4 after 24 hrs; details: SCHU-S4, 24 h
Acinetobacter baumannii [2] = experiment: Antimicrobial activity against Acinetobacter baumannii WRAIR after 24 hrs
Brucella suis = experiment: Antimicrobial activity against Brucella suis ATCC 23445 after 24 hrs; details: ATCC 23445, 24 h
Staphylococcus aureus = experiment: Antimicrobial activity against methicillin-resistant Staphylococcus aureus ATCC 33591 after 24 hrs; details: ATCC 33591, 24 h
Brucella abortus = experiment: Antimicrobial activity against Brucella abortus 2308 after 24 hrs; details: Brucella abortus, 2308, 24 h
Brucella melitensis = experiment: Antimicrobial activity against Brucella melitensis 16 M after 24 hrs
Burkholderia mallei = experiment: Antimicrobial activity against Burkholderia mallei ATCC 23444 after 24 hrs; details: ATCC 23444, 24 h
[3] = system: Burkholderia pseudomallei; experiment: Antimicrobial activity against Burkholderia pseudomallei BURK003(1026b) after 24 hrs
Yersinia pestis = experiment: Antimicrobial activity against Yersinia pestis CO92 after 24 hrs; details: CO92, 24 h
Bacillus anthracis = experiment: Antimicrobial activity against Bacillus anthracis Ames after 24 hrs

Compound | MIC (Acinetobacter baumannii [1]) [µM] | MIC (Francisella tularensis) [µM] | MIC (Acinetobacter baumannii [2]) [µM] | MIC (Brucella suis) [µM] | MIC (Staphylococcus aureus) [µM] | MIC (Brucella abortus) [µM] | MIC (Brucella melitensis) [µM] | MIC (Burkholderia mallei) [µM] | MIC [3] [µM] | MIC (Yersinia pestis) [µM] | MIC (Bacillus anthracis) [µM]
CC(=O)NCC(=O)N[C@@H](Cc1ccccc1)C(=O)N1Cc2ccccc2C[C@H]1C(=O)N1C[C@@H](C(=O)NCC(=O)N[C@@H](CCN)C(=O)N2Cc3ccccc3C[C@H]2C(=O)N2C[C@@H](C(=O)NCC(=O)N[C@@H](Cc3ccccc3)C(=O)N3Cc4ccccc4C[C@H]3C(=O)N3C[C@@H](C(=O)NCC(=O)N[C@@H](CCN)C(=O)N4Cc5ccccc5C[C@H]4C(=O)N[C@@H](CCN)C(=O)N[C@@H](CCN)C(=O)N[C@@H](CCN)C(=O)N[C@@H](CCN)C(N)=O)C4CCCCC43)C3CCCCC32)C2CCCCC21 (some centres undefined) (Ac-GF[Tic][X1]G[Dab][Tic][X1]GF[Tic][X1]G[Dab][Tic][Dab][Dab][Dab][Dab]-NH2) | 3.4 (≈ 7.73 µg/mL) | 220 (≈ 500 µg/mL) | 3.4 (≈ 7.73 µg/mL) | 220 (≈ 500 µg/mL) | 220 (≈ 500 µg/mL) | 220 (≈ 500 µg/mL) | 220 (≈ 500 µg/mL) | 220 (≈ 500 µg/mL) | 220 (≈ 500 µg/mL) | 220 (≈ 500 µg/mL) | 6.8 (≈ 15.5 µg/mL)
C[C@H]1c2cccc(O)c2C(=O)C2=C(O)[C@]3(O)C(=O)C(C(N)=O)=C(O)[C@@H](N(C)C)[C@@H]3[C@@H](O)[C@@H]21 [DOXYCYCLINE] | 0.56 (≈ 0.249 µg/mL) | 0.09 (≈ 0.04 µg/mL) | 0.56 (≈ 0.249 µg/mL) | 0.56 (≈ 0.249 µg/mL) | 17.6 (≈ 7.82 µg/mL) | 0.56 (≈ 0.249 µg/mL) | 0.56 (≈ 0.249 µg/mL) | 0.09 (≈ 0.04 µg/mL) | 0.09 (≈ 0.04 µg/mL) | 0.56 (≈ 0.249 µg/mL) | 0.27 (≈ 0.12 µg/mL)
CC(=O)NCCCC(=O)N[C@@H](Cc1ccccc1)C(=O)N1Cc2ccccc2C[C@H]1C(=O)N1C[C@@H](C(=O)NCCCC(=O)N[C@@H](CCCCN)C(=O)N2Cc3ccccc3C[C@H]2C(=O)N2C[C@@H](C(=O)NCCCC(=O)N[C@@H](Cc3ccccc3)C(=O)N3Cc4ccccc4C[C@H]3C(=O)N3C[C@@H](C(=O)NCCCC(=O)N[C@@H](CCCCN)C(=O)N4Cc5ccccc5C[C@H]4C(=O)N[C@@H](CCCCN)C(=O)N[C@@H](CCCCN)C(=O)N[C@@H](CCCCN)C(=O)N[C@@H](CCCCN)C(=O)N[C@@H](CCCCN)C(N)=O)C4CCCCC43)C3CCCCC32)C2CCCCC21 (some centres undefined) (Ac-[GABA]F[Tic][X1][GABA]K[Tic][X1][GABA]F[Tic][X1][GABA]K[Tic]KKKKK-NH2) | 5.8 (≈ 15.6 µg/mL) | 186 (≈ 499 µg/mL) | 2.9 (≈ 7.78 µg/mL) | 93 (≈ 249 µg/mL) | 46.6 (≈ 125 µg/mL) | > 186 | 46.6 (≈ 125 µg/mL) | 186 (≈ 499 µg/mL) | 186 (≈ 499 µg/mL) | 46.6 (≈ 125 µg/mL) | 0.71 (≈ 1.9 µg/mL)
CC(=O)NCCC(=O)N[C@@H](Cc1ccc(F)cc1)C(=O)N1Cc2ccccc2C[C@H]1C(=O)N1CC2CCCCC2[C@H]1C(=O)NCCC(=O)N[C@@H](CN)C(=O)N1Cc2ccccc2C[C@H]1C(=O)N1CC2CCCCC2[C@H]1C(=O)NCCC(=O)N[C@@H](Cc1ccc(F)cc1)C(=O)N1Cc2ccccc2C[C@H]1C(=O)N1CC2CCCCC2[C@H]1C(=O)NCCC(=O)N[C@@H](CN)C(=O)N1Cc2ccccc2C[C@H]1C(=O)N[C@@H](CN)C(=O)N[C@@H](CN)C(=O)N[C@@H](CN)C(=O)N[C@@H](CN)C(N)=O (some centres undefined) (Ac-[βAla][Phe(4-F)][Tic][Pro(3ξ,4ξ-(CH2)4)][βAla][Dap][Tic][Pro(3ξ,4ξ-(CH2)4)][βAla][Phe(4-F)][Tic][Pro(3ξ,4ξ-(CH2)4)][βAla][Dap][Tic][Dap][Dap][Dap][Dap]-NH2) | 3.4 (≈ 7.75 µg/mL) | 219 (≈ 499 µg/mL) | 3.4 (≈ 7.75 µg/mL) | 219 (≈ 499 µg/mL) | 109 (≈ 249 µg/mL) | 219 (≈ 499 µg/mL) | 219 (≈ 499 µg/mL) | 219 (≈ 499 µg/mL) | 219 (≈ 499 µg/mL) | 219 (≈ 499 µg/mL) | 6.8 (≈ 15.5 µg/mL)
